From patent US10196671B2, “Assay method for the detection of viable microbial cells in a sample” (3M INNOVATIVE PROPERTIES COMPANY, priority 2006, dated 2019)

Tests used:
apyrase [1] = molecular target: T1, apyrase (Solanum tuberosum, UniProt P80595)
Experimental: (§1) 1. Leuconostoc sp MD 110 was grown by streaking a bead onto de Man Rogosa Sharpe agar to revive bead for stock (place in 30° C. incubator overnight).
a. A loop was taken from this plate and transferred to 10 ml Tryptone Soya Broth and grown at 30° C. for exactly 40 hours.
b. […] Cells were washed twice in ice-cold Reverse Osmosis water in centrifuge (4500 rpm for 10 mins), resuspended in 10 ml cold Reverse Osmosis water and stored in the fridge. c. Cells for the experiment were prepared using a 100× dilution of this stock with a sterile solution of glucose (10 g/l) and MgCl2 (5 mM) at room temperature. Cells were diluted into this solution at least 20 minutes prior to starting each experiment to allow adaptation to the new conditions.
d. A luciferase/luciferin reagent formulated with a detergent-resistant luciferase (Promega, Ultraglo) (Liquid Lysate) enzyme was reconstituted in 17.5 ml phosphate buffer pH 7.75.
(§2) 2. 1 ml of the above cell suspension was added to a cuvette.
3. The suspension was then treated with 1 ml of reconstituted apyrase 0.96 units per ml, and […] of ATP (10^−7M) was added and left for 15 minutes at room temperature.
(§3) 4. Two 100 μl aliquots of the treated suspension was transferred to clean cuvettes.
5. 100 μl of the luciferase/luciferin reagent formulated with a detergent-resistant luciferase (Promega, Ultraglo)/phosphate luciferase was added to each of the cuvettes.
6. To the remaining 2 cuvettes 100 μl of a solution of long chain fatty acid ethoxylates (the extractant) was added and a timer started.
7. Cuvette 1 was read in a luminometer after 5 minutes extraction time.
8. Cuvette 1 was removed from the luminometer and 10 μl of 10^−7M ATP was added to standardise.
9. The sample was returned to the luminometer and read again, then read 5 consecutive times in a row in order to determine the final kinetics of the reaction.
10. After a further five minutes steps 9-11 were repeated for cuvette 2.
11. For the control steps 4 to 13 were repeated but using a luciferase/luciferin reagent formulated with a detergent-resistant luciferase (Promega, Ultraglo) reconstituted in 25 mM HEPES buffer pH 7.75.

apyrase [2] = molecular target: T1, apyrase; remark: listed apart in the source
Experimental: A loop was taken from this plate and transferred to 10 ml Tryptone Soya Broth and grown at 30° C. for exactly 40 hours.
1.3. […] Cells were washed twice in ice-cold Reverse Osmosis water in centrifuge (4500 rpm for 10 mins), resuspended in 10 ml cold Reverse Osmosis water and stored in the fridge.
Cells for the experiment were prepared using a 100× dilution of this stock with a sterile solution of glucose (10 g/l) and MgCl2 (5 mM) at room temperature. Cells were diluted into this solution at least 20 minutes prior to starting each experiment to allow adaptation to the new conditions.
as §2

apyrase [3] = molecular target: T1, apyrase; remark: listed apart in the source
Experimental: as §1
1.1. A loop was taken from this plate and transferred to 10 ml Tryptone Soya Broth and grown at 30° C. for exactly 40 hours.
Cells were washed twice in ice-cold Reverse Osmosis water in centrifuge (4500 rpm for 10 mins), resuspended in 10 ml cold Reverse Osmosis water and stored in the fridge.
(§4) 1.3. Cells for the experiment were prepared using a 100× dilution of this stock with a sterile solution of glucose (10 g/l) and MgCl2 (5 mM) at room temperature. Cells were diluted into this solution at least 20 minutes prior to starting each experiment to allow adaptation to the new conditions.
A special luciferase/luciferin reagent formulated with a detergent-resistant luciferase (Promega, Ultraglo) enzyme was prepared. This was reconstituted in 17.5 ml of 30 mM phosphate /10 g/l a solution of long chain fatty acid ethoxylates.
as §2
3. The suspension was then treated with 1 ml of reconstituted apyrase 0.96 units per ml, and 10 μl of ATP (10^−7M) was added and left for 15 minutes at room temperature.
as §3
5. To these two cuvettes 100 μl of the luciferase/luciferin reagent formulated with a detergent-resistant luciferase (Promega, Ultraglo) Ultraglo/phosphate/solution of long chain fatty acid ethoxylates was added.
(§5) 6. After 5 minutes extraction time Cuvette 1 was read in a luminometer.
(§6) 7. Cuvette 1 was removed from the luminometer and 10 μl of 10^−7M ATP was added to standardise.
(§7) 8. The sample was returned to the luminometer and read again, then read 5 consecutive times in a row in order to determine the final kinetics of the reaction.
(§8) 9. After a further five minutes the second water cuvette was read in a luminometer.
(§9) 10. Steps 7-11 were repeated for cuvette 2.
11. For the control, steps 4 to 13 were repeated but using a luciferase/luciferin reagent formulated with a detergent-resistant luciferase (Promega, Ultraglo) made by reconstituting in 25 mM HEPES buffer pH 7.75 with a solution of long chain fatty acid ethoxylates (10 g/l).

apyrase [4] = molecular target: T1, apyrase; remark: listed apart in the source
Experimental: as §1
1.1 A loop was taken from this plate and transferred to 10 ml Tryptone Soya Broth and grown at 30° C. for exactly 40 hours.
Cells were washed twice in ice-cold RO water in centrifuge (4500 rpm for 10 mins), resuspended in 10 ml cold Reverse Osmosis water and stored in the fridge.
as §4
1 ml of the above cell suspension was added to a cuvette.
2. The suspension was then treated with 1 ml of reconstituted apyrase 0.96 units per ml, and 10 μl of ATP (10^−7M) was added and left for 15 minutes at room temperature.
3. 2×100 μl aliquots of the treated suspension were added to clean cuvettes.
4. To these 2 cuvettes 20 μl of 100 μM pH 7.75 phosphate solution was added.
5. 100 μl of the extractant (a solution of long chain fatty acid ethoxylates) was added and a timer started.
as §5, §6, §7, §8, §9
11. For the control, steps 4 to 13 were repeated but using 20 μl of Reverse Osmosis water in place of 20 μl phosphate.

T1 sequence (P80595 whole entry, species assumed): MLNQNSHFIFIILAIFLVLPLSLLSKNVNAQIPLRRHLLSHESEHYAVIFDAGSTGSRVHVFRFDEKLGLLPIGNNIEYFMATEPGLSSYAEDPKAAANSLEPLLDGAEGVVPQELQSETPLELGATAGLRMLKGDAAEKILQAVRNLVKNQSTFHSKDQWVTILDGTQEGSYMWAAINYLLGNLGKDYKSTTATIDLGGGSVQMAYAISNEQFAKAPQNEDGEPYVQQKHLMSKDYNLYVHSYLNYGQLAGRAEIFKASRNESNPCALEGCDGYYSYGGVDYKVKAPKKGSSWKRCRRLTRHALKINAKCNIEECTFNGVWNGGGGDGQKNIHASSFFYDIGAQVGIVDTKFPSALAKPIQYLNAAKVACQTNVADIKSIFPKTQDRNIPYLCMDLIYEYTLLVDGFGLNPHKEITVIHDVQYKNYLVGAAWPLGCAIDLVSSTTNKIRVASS

drop of assay signal (kinetics, FIG. 2.3) (apyrase [1]; in 50 seconds after ATP standard, phosphate buffer pH 7.75): 10% | RLU produced after 5 minutes extraction still remaining at T=10 minutes (apyrase [1]; luciferase reagent reconstituted in phosphate buffer pH 7.75): 73.7% | amount of ATP at T=10 as percentage of that present at T=5 (apyrase [1]; phosphate buffer pH 7.75): 81.3% | amount of ATP at T=5 (apyrase [1]; phosphate buffer pH 7.75, T=5 minutes): 0.035 picomoles | amount of ATP remaining at T=10 (apyrase [1]; phosphate buffer pH 7.75, T=10 minutes): 0.029 picomoles | rise in RLU from T-5 to T-10 (apyrase [2]; 30 mM phosphate mixed with the extractant, after 15 min apyrase 0.96 units per ml, Leuconostoc sp MD 110 suspension): 38% | inhibition of apyrase (kinetics, FIG. 1.3) (apyrase [2]; 30 mM phosphate, ATP standard added, consecutive luminometer reads): inhibits the action of apyrase | amount of ATP per assay higher at T=10 than at T=5 (apyrase [3]; 30 mM phosphate in luciferase/extractant reagent): 42% | amount of ATP per assay at T=5 (apyrase [3]; 30 mM phosphate in luciferase/extractant reagent, T=5): 0.0052 picomoles | amount of ATP per assay at T=10 (apyrase [3]; 30 mM phosphate in luciferase/extractant reagent, T=10): 0.0074 picomoles | increase of RLU values (kinetics) (apyrase [3]; in 75 seconds, 30 mM phosphate in luciferase/extractant reagent): 13% | RLU signal higher at T=10 than at T=5 (apyrase [3]; luciferase reagent in 30 mM phosphate / 10 g/l long chain fatty acid ethoxylates): 57% | inhibition of apyrase, ATP broken down in 5 minutes (FIG. 4.2) (apyrase [4]; 20 μl of 100 μM pH 7.75 phosphate solution): does inhibit apyrase | RLU produced after 5 minutes extraction remaining 5 minutes later (apyrase [4]; 20 μl of 100 μM pH 7.75 phosphate solution added before extractant): 100% | level of ATP present in the assay, T-5 to T-10 (apyrase [4]; 20 μl of 100 μM pH 7.75 phosphate solution, patent believes it an artifact of the calculation): increased | drop of RLU values (kinetics) (apyrase [4]; in 46 seconds, 20 μl of 100 μM pH 7.75 phosphate solution): around 1,400 RLU
Substance: phosphate
